The values that follow come from US4260608A, “Maytansinoids, pharmaceutical compositions thereof and methods of use thereof” (Takeda Chemical Industries, Ltd., priority 1978, dated 1981).

In brackets after ≈: the same amount, converted by molar mass. Like-named read-outs stand apart in the source and are kept apart here.

The subject of assay [1] is melanoma B-16 tumor cells. As to the kind of experiment: Antitumor activity, life span prolongation in mice transplanted intraperitoneally with melanoma B-16. The conditions noted are these: intraperitoneal, once daily for 9 consecutive days. Format: in vivo. As to the method: Therapeutic tests were carried out in mice according to NCI-protocol 1,300, Cancer Chemother, Reports, Part 3, 1972, Vol. 3, No. 2, in which melanoma B-16 tumor cells had been intraperitoneally transplanted, compound (I) being administered intraperitoneally once daily for 9 consecutive days.

Another assay relates to Tetrahymena pyriformis W. As to the kind of experiment: Antiprotozoal activity, growth inhibition by serial dilution method. Format: cell-based. How it is done: Antiprotozoal activity of compound (I) was assayed with Tetrahymena pyriformis W as the test organism and a medium composed of 20 g tryptose-peptone (Difco Co.), 1 g yeast extract, 2 g glucose, 1000 ml distilled water, 10 ml 1 M phosphate buffer (pH 7.0) as the assay medium. The microorganism was incubated at 28° C. for 44 to 48 hours and the growth inhibitory activity of compound (I) was assayed by the serial dilution method.

Setting [2] is: Tetrahymena pyriformis W, 28° C., 44 to 48 hours, pH 7.0 medium, serial dilution, read-out: Antiprotozoal activity MIC.

For `COc1cc2cc(c1Cl)N(C)C(=O)CC(OC(=O)[C@H](Cc1ccccc1)N(C)C(C)=O)C1(C)OC1C(C)C1CC(O)(NC(=O)O1)C(OC)C=CC=C(C)C2` (stereo partly shown), the “Antitumor activities B-16 (T/C %)” value in assay [1] (25 μg/kg) is reported as 211%; in assay [1] (50 μg/kg), 208%; in assay [1] (100 μg/kg) it was 205%; in assay [1] (200 μg/kg), 95%. In the assay with Tetrahymena pyriformis W (setting [2]), the MIC was found to be 1 µg/mL (≈ 1.3 µM).
For the compound `COc1cc2cc(c1Cl)N(C)C(=O)CC(OC(=O)[C@@H](CC(C)C)N(C)C(C)=O)C1(C)OC1C(C)C1CC(O)(NC(=O)O1)C(OC)C=CC=C(C)C2` (stereo partly drawn) [maytansinol 3-(N-acetyl-N-methyl)-D-leucine ester], the MIC with Tetrahymena pyriformis W (Tetrahymena pyriformis, pH 7, read-out: Antiprotozoal activity MIC) amounted to 28 µg/mL (≈ 38.1 µM).
As for `COc1cc2cc(c1Cl)N(C)C(=O)CC(OC(=O)[C@H](CC(C)C)N(C)C(C)=O)C1(C)OC1C(C)C1CC(O)(NC(=O)O1)C(OC)C=CC=C(C)C2` (stereo partly drawn) [maytansinol 3-(N-acetyl-N-methyl)-L-leucine ester], the “Antitumor activities B-16 (T/C %)” value in assay [1] (25 μg/kg) was determined as 171%; in assay [1] (50 μg/kg) it was 209%; in assay [1] (100 μg/kg) it was 202%; in assay [1] (200 μg/kg), 65%. Besides, in the assay with Tetrahymena pyriformis W (setting [2]), the MIC amounted to 2 µg/mL (≈ 2.72 µM).
With `COc1cc2cc(c1Cl)N(C)C(=O)CC(OC(=O)[C@H](C)N(C)C(=O)c1ccccc1)C1(C)OC1C(C)C1CC(O)(NC(=O)O1)C(OC)C=CC=C(C)C2` (stereo partly drawn) [maytansinol 3-(N-benzoyl-N-methyl)-L-alanine ester], the MIC in the assay on Tetrahymena pyriformis W (setting [2]) lay in the range of 2 to 4 µg/mL (≈ 2.65 to 5.3 µM).
Still for that read-out and setting: the figure for `COc1cc2cc(c1Cl)N(C)C(=O)CC(OC(=O)[C@H](Cc1ccccc1)NC(=O)OC(C)(C)C)C1(C)OC1C(C)C1CC(O)(NC(=O)O1)C(OC)C=CC=C(C)C2` (stereo partly drawn) [maytansinol 3-(N-t-butyloxycarbonyl)-L-phenylalanine ester] is 4 µg/mL (≈ 4.92 µM); for `COc1cc2cc(c1Cl)N(C)C(=O)CC(OC(=O)[C@@H](C)N(C)C(=O)OC(C)(C)C)C1(C)OC1C(C)C1CC(O)(NC(=O)O1)C(OC)C=CC=C(C)C2` (stereo partly drawn) [maytansinol 3-(N-tert-butoxycarbonyl-N-methyl)-D-alanine ester] it is 8 µg/mL (≈ 10.7 µM).
`COc1cc2cc(c1Cl)N(C)C(=O)CC(OC(=O)[C@H](C)N(C)C(=O)OC(C)(C)C)C1(C)OC1C(C)C1CC(O)(NC(=O)O1)C(OC)C=CC=C(C)C2` (stereo partly drawn) [maytansinol 3-(N-tert-butoxycarbonyl-N-methyl)-L-alanine ester]: the “Antitumor activities B-16 (T/C %)” value in assay [1] (12.5 μg/kg) was found to be 163%; in assay [1] (25 μg/kg), 178%; in assay [1] (50 μg/kg), 198%; in assay [1] (100 μg/kg), 193%. In addition, the MIC in the assay with Tetrahymena pyriformis W (setting [2]) was 0.4 to 0.8 µg/mL (≈ 0.533 to 1.07 µM).
